According to US20170247366A1, “SUBSTITUTED 4-ALKOXYPICOLINAMIDE ANALOGS AS MGLUR5 NEGATIVE ALLOSTERIC MODULATORS AND METHODS OF MAKING AND USING THE SAME” (VANDERBILT UNIVERSITY, priority 2014, published 2017):

molecular target: T1, rat mGluR5 (Rattus norvegicus, UniProt P31424); test: mGluR5 calcium flux assay in HEK 293A cells, negative allosteric modulation of glutamate EC80 response; assay type: cell-based; conditions: HEK cells transfected with rat mGluR5; glutamate EC80; ± is standard error of at least three experiments
T1 construct: expressed in transfected cells
Method: HEK 293A cells stably expressing either rat or human mGluR5 were plated in black-walled, clear-bottomed, poly-D-lysine coated 384-well plates in 20 μL of assay medium (DMEM containing 10% dialyzed FBS, 20 mM HEPES, 100 units/mL penicillin/streptomycin plus 250 ng/mL Fungizone, and 1 mM sodium pyruvate) at a density of 20K cells/well. The cells were grown overnight at 37° C. in the presence of 5% CO2. The next day, medium was removed and the cells incubated with 20 μL of 2.3 µM Fluo-4, AM prepared as a 2.3 mM stock in DMSO and mixed in a 1:1 ratio with 10% (w/v) pluronic acid F-127 and diluted in assay buffer (Hank's balanced salt solution, 20 mM HEPES, and 2.5 mM probenecid) for 45 minutes at 37° C. Dye was removed, 20 μL of assay buffer was added, and the plate was incubated for 5 minutes at room temperature.
Ca^2+ flux was measured using the Functional Drug Screening System (FDSS7000, Hamamatsu, Japan). After establishment of a fluorescence baseline for about 3 seconds, the compounds of the present invention were added to the cells, and the response in cells was measured. 2.3 minutes later an EC20 concentration of the mGluR5 receptor agonist glutamate was added to the cells, and the response of the cells was measured for 1.9 minutes; an EC80 concentration of agonist was added and readings taken for an additional 1.7 minutes. All test compounds were dissolved and diluted to a concentration of 10 mM in 100% DMSO. Compounds were then serially diluted 1:3 in DMSO into 10 point concentration response curves, transferred to daughter plates, and further diluted into assay buffer to a 2× stock. Calcium fluorescence measures were recorded as fold over basal fluorescence; raw data was then normalized to the maximal response to glutamate. Antagonism of the agonist response of the mGluR5 receptor in the present invention was observed as a decrease in response to nearly maximal concentrations of glutamate in the presence of compound compared to the response to glutamate in the absence of compound.
The raw data file containing all time points was used as the data source in the analysis template. This was saved by the FDSS as a tab-delimited text file. Data were normalized using a static ratio function (F/F0) for each measurement of the total 360 values per well divided by each well's initial value. Data were then reduced to peak amplitudes (Max−Initial Min) using a time range that starts approximately 3 seconds prior to the glutamate EC20/EC80 addition and continues for approximately 90-120 seconds. This is sufficient time to capture the peak amplitude of the cellular calcium response. Individual amplitudes were expressed as % EMax by multiplying each amplitude by 100 and then dividing the product by the mean of the amplitudes derived from the glutamate ECMax-treated wells. IC50 values for test compounds were generated by fitting the normalized values versus the log of the test compound concentration (in mol/L) using a 4 parameter logistic equation where none of the parameters were fixed. Each of the three values collected at each concentration of test compound were weighted evenly.
For NAMs with a CRC that plateaus above 10% Glu Max, the IC50 values are reported, the compound is designated a “partial NAM” and the % Glu Max is reported. […] Compounds without measurable activity are designated as “>30,000 nM” since the top concentration of compound tested in the assay is 30 µM. Exemplary data are provided in Tables 1 and 2 below.
Table 1 below lists specific compounds, experimentally determined molecular mass, and mGluR5 activity determined in a cell-based assay. The mGluR5 activity was determined using the metabotropic glutamate receptor activity assays in human embryonic kidney cells as described herein, wherein the human embryonic kidney cells were transfected with rat mGluR5. The mGluR5 activity data for some compounds are shown as the average of at least three experiments with the standard error in these cases. […]

T1 sequence (P31424 21-1203): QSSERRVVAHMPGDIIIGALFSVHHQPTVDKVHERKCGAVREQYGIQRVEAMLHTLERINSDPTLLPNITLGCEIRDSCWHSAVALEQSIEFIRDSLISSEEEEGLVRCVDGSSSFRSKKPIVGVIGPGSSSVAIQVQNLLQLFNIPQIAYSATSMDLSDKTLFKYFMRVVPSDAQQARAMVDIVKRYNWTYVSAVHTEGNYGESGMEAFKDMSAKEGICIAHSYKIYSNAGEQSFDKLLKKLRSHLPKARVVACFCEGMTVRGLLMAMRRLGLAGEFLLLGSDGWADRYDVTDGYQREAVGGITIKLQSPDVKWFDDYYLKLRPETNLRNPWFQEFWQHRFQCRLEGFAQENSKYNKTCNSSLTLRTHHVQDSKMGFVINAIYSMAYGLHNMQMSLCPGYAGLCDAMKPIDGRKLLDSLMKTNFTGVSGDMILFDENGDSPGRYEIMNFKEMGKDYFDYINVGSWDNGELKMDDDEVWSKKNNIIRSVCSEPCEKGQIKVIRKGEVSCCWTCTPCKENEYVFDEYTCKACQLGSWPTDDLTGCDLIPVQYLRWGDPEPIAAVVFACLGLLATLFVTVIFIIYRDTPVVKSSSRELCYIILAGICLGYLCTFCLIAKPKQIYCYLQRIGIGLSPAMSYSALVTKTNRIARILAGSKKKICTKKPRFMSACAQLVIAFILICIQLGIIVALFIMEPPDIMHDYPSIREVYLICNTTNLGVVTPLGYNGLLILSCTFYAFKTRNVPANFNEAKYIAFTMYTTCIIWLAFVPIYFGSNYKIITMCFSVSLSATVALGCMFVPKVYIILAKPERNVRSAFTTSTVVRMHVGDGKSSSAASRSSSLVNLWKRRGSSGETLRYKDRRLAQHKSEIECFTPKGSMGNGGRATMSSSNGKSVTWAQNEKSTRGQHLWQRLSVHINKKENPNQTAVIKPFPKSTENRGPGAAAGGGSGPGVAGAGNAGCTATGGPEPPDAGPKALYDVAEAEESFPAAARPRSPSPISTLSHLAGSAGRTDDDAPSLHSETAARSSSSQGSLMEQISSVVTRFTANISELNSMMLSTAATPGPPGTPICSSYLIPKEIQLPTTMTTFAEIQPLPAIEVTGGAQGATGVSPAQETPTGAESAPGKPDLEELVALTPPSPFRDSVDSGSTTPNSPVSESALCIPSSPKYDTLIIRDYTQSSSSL

| SMILES | IC50 |
| --- | --- |
| Cc1cc(OC2CCC2)cc(C(=O)Nc2ccccn2)n1 | 43 nM |
| Cc1cc(OC2CCC2)cc(C(=O)Nc2nc(C)cs2)n1 | 59 ± 7 nM |
| Cc1cc(OC2COC2)cc(C(=O)Nc2ccc(F)cn2)n1 | 212 ± 8 nM |
| Cc1cc(O[C@@H]2CCOC2)cc(C(=O)Nc2ccccn2)n1 | 23 nM |
| Cc1cc(O[C@@H]2CCOC2)cc(C(=O)Nc2nc(C)cs2)n1 | 42 ± 9 nM |
| Cc1cc(O[C@H]2CCOC2)cc(C(=O)Nc2ccccn2)n1 | 194 nM |
| Cc1cc(O[C@H]2CCOC2)cc(C(=O)Nc2ccc(F)cn2)n1 | 685 ± 51 nM |
| Cc1cc(O[C@H]2CCOC2)cc(C(=O)Nc2nc(C)cs2)n1 | 133 ± 14 nM |
| Cc1cc(OC2CCCCC2)cc(C(=O)Nc2ccc(F)cn2)n1 | 3350 nM |
| Cc1cc(OC2CCCOC2)cc(C(=O)Nc2ccccn2)n1 (stereo not shown) | 224 nM |
| Cc1cc(OC2CCCOC2)cc(C(=O)Nc2nc(C)cs2)n1 (stereo not shown) | 140 nM |
| Cc1cc(O[C@@H]2CCCOC2)cc(C(=O)Nc2ccc(F)cn2)n1 | 353 ± 83 nM |
| Cc1cc(O[C@H]2CCCOC2)cc(C(=O)Nc2ccccn2)n1 | 75 nM |
| Cc1cc(OC2CCCCC2)cc(C(=O)Nc2ccccn2)n1 | 1420 nM |
| Cc1cc(OC2CCCCC2)cc(C(=O)Nc2nc(C)cs2)n1 | 2100 nM |
| Cc1cc(OC2CCCOC2)cc(C(=O)Nc2ccc(F)cn2)n1 (stereo not shown) | 497 nM |
| Cc1cc(O[C@@H]2CCCOC2)cc(C(=O)Nc2ccccn2)n1 | 101 nM |
| Cc1cc(O[C@@H]2CCCOC2)cc(C(=O)Nc2nc(C)cs2)n1 | 70 ± 11 nM |
| Cc1cc(O[C@H]2CCCOC2)cc(C(=O)Nc2ccc(F)cn2)n1 | 264 ± 47 nM |

| SMILES | IC50 |
| --- | --- |
| Cc1cc(O[C@H]2CCCOC2)cc(C(=O)Nc2nc(C)cs2)n1 | 91 ± 3 nM |
| Cc1cc(OC2CCOCC2)cc(C(=O)Nc2ccccn2)n1 | 1560 nM |
| Cc1cc(OCC2CCO2)cc(C(=O)Nc2ccccn2)n1 (stereo not shown) | 646 nM |
| Cc1cc(OCC2CCO2)cc(C(=O)Nc2nc(C)cs2)n1 (stereo not shown) | 399 nM |
| Cc1cc(OCC2COC2)cc(C(=O)Nc2ccc(F)cn2)n1 | 4300 nM |
| Cc1cc(OCC2CCCO2)cc(C(=O)Nc2ccccn2)n1 (stereo not shown) | 725 nM |
| Cc1cc(OCC2CCCO2)cc(C(=O)Nc2nc(C)cs2)n1 (stereo not shown) | 273 nM |
| Cc1cc(OC2CCOCC2)cc(C(=O)Nc2nc(C)cs2)n1 | 446 nM |
| Cc1cc(OCC2CCO2)cc(C(=O)Nc2ccc(F)cn2)n1 (stereo not shown) | 2480 nM |
| Cc1cc(OCC2COC2)cc(C(=O)Nc2ccccn2)n1 | 392 nM |
| Cc1cc(OCC2COC2)cc(C(=O)Nc2nc(C)cs2)n1 | 143 ± 32 nM |
| Cc1cc(OCC2CCCO2)cc(C(=O)Nc2ccc(F)cn2)n1 (stereo not shown) | 2330 nM |
| Cc1cc(OCC2CCOC2)cc(C(=O)Nc2ccccn2)n1 (stereo not shown) | 210 nM |
| Cc1cc(OCC2CCOC2)cc(C(=O)Nc2ccc(F)cn2)n1 (stereo not shown) | 701 nM |
| Cc1cc(OCC2CCOC2)cc(C(=O)Nc2nc(C)cs2)n1 (stereo not shown) | 200 nM |
| Cc1cc(OC[C@@H]2CCOC2)cc(C(=O)Nc2ccccn2)n1 | 166 nM |
| Cc1cc(OC[C@@H]2CCOC2)cc(C(=O)Nc2nc(C)cs2)n1 | 151 ± 38 nM |
| Cc1cc(OC[C@H]2CCOC2)cc(C(=O)Nc2ccc(F)cn2)n1 | 4890 nM |
| COCCOc1cc(C)nc(C(=O)Nc2ccccn2)c1 | 120 nM |

| SMILES | IC50 |
| --- | --- |
| COCCOc1cc(C)nc(C(=O)Nc2nc(C)cs2)c1 | 82 ± 12 nM |
| Cc1cc(OC2COC2)cc(C(=O)Nc2cccc(F)n2)n1 | 201 nM |
| Cc1cc(OC2CN(S(C)(=O)=O)C2)cc(C(=O)Nc2nc(C)cs2)n1 | 504 nM |
| COC(=O)N1CC(Oc2cc(C)nc(C(=O)Nc3nc(C)cs3)c2)C1 | 686 nM |
| Cc1cc(OC2CN(C(=O)OC(C)C)C2)cc(C(=O)Nc2nc(C)cs2)n1 | 2510 nM |
| CCOC(=O)N1CC(Oc2cc(C)nc(C(=O)Nc3ccc(F)cn3)c2)C1 | 3340 nM |
| CCCOC(=O)N1CC(Oc2cc(C)nc(C(=O)Nc3ccc(F)cn3)c2)C1 | > 10000 nM |
| Cc1cc(OC2CN(C(=O)OCC(C)C)C2)cc(C(=O)Nc2ccc(F)cn2)n1 | > 30000 nM |
| CCS(=O)(=O)N1CC(Oc2cc(C)nc(C(=O)Nc3nc(C)cs3)c2)C1 | 1270 nM |
| CCCS(=O)(=O)N1CC(Oc2cc(C)nc(C(=O)Nc3nc(C)cs3)c2)C1 | 789 nM |
| Cc1cc(OC2CN(S(=O)(=O)CC(C)C)C2)cc(C(=O)Nc2nc(C)cs2)n1 | > 10000 nM |
| CCCS(=O)(=O)N1CC(Oc2cc(C)nc(C(=O)Nc3ccc(F)cn3)c2)C1 | > 10000 nM |
| Cc1cc(OC2CN(S(=O)(=O)CC(C)C)C2)cc(C(=O)Nc2ccc(F)cn2)n1 | > 30000 nM |
| Cc1cc(OC2CN(C(=O)N(C)C)C2)cc(C(=O)Nc2ccc(F)cn2)n1 | > 10000 nM |
| Cc1cc(OC2CN(S(=O)(=O)C(C)C)C2)cc(C(=O)Nc2nc(C)cs2)n1 | 3620 nM |
| CCS(=O)(=O)N1CC(Oc2cc(C)nc(C(=O)Nc3ccc(F)cn3)c2)C1 | > 10000 nM |
| Cc1cc(OC2CN(S(=O)(=O)C(C)C)C2)cc(C(=O)Nc2ccc(F)cn2)n1 | 3980 nM |
| Cc1cc(OC2CN(C(=O)N(C)C)C2)cc(C(=O)Nc2nc(C)cs2)n1 | > 10000 nM |

same assay, conditions: rat mGluR5; CRC plateaus above 10% Glu Max

| SMILES | NAM designation |
| --- | --- |
| Cc1cc(OC2CN(S(=O)(=O)C(C)C)C2)cc(C(=O)Nc2ccc(F)cn2)n1 | Partial NAM |

same assay, conditions: rat mGluR5; average Glu Max at 30 μM; CRC does not hit a plateau

| SMILES | % Glu Max at single concentration |
| --- | --- |
| CCCOC(=O)N1CC(Oc2cc(C)nc(C(=O)Nc3ccc(F)cn3)c2)C1 | 37% |
| Cc1cc(OC2CN(S(=O)(=O)CC(C)C)C2)cc(C(=O)Nc2nc(C)cs2)n1 | 59% |
| CCCS(=O)(=O)N1CC(Oc2cc(C)nc(C(=O)Nc3ccc(F)cn3)c2)C1 | 53% |
| Cc1cc(OC2CN(C(=O)N(C)C)C2)cc(C(=O)Nc2ccc(F)cn2)n1 | 69% |
| CCS(=O)(=O)N1CC(Oc2cc(C)nc(C(=O)Nc3ccc(F)cn3)c2)C1 | 62% |
| Cc1cc(OC2CN(C(=O)N(C)C)C2)cc(C(=O)Nc2nc(C)cs2)n1 | 31% |

same assay, conditions: rat mGluR5; response in presence of compound as percentage of maximal glutamate response; CRC plateaus above 10%

| SMILES | % Glu Max (partial NAM, plateau of CRC) |
| --- | --- |
| Cc1cc(OC2CN(S(=O)(=O)C(C)C)C2)cc(C(=O)Nc2ccc(F)cn2)n1 | 58% |

molecular target: T2, cytochrome P450 1A2 (Homo sapiens, UniProt P05177); test: not given; conditions: cited from earlier work
T2 sequence (P05177 1-516): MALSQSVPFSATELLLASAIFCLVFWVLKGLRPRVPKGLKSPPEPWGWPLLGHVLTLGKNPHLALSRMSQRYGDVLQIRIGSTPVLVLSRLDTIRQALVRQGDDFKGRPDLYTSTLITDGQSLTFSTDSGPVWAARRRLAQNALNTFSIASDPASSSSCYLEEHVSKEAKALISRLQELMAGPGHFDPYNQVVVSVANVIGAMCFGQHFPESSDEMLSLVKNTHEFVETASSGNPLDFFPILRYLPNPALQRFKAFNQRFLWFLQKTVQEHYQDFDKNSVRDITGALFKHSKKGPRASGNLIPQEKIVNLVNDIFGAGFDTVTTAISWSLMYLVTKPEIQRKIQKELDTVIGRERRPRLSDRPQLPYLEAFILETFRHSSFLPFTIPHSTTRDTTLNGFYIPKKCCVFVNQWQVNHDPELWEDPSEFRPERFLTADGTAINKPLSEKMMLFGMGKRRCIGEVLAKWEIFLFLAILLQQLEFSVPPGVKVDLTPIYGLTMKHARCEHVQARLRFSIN

| SMILES | Inhibition of cytochrome P450 1A2 |
| --- | --- |
| Cc1nc(C#Cc2cccnc2)cs1 [MTEP, 3-[(2-methyl-1,3-thiazol-4-yl)ethynyl]pyridine] | potent inhibitor |

molecular target: mGluR4 (Homo sapiens, UniProt Q14833); test: not given; conditions: cited from earlier work
Sequence (Q14833 33-912): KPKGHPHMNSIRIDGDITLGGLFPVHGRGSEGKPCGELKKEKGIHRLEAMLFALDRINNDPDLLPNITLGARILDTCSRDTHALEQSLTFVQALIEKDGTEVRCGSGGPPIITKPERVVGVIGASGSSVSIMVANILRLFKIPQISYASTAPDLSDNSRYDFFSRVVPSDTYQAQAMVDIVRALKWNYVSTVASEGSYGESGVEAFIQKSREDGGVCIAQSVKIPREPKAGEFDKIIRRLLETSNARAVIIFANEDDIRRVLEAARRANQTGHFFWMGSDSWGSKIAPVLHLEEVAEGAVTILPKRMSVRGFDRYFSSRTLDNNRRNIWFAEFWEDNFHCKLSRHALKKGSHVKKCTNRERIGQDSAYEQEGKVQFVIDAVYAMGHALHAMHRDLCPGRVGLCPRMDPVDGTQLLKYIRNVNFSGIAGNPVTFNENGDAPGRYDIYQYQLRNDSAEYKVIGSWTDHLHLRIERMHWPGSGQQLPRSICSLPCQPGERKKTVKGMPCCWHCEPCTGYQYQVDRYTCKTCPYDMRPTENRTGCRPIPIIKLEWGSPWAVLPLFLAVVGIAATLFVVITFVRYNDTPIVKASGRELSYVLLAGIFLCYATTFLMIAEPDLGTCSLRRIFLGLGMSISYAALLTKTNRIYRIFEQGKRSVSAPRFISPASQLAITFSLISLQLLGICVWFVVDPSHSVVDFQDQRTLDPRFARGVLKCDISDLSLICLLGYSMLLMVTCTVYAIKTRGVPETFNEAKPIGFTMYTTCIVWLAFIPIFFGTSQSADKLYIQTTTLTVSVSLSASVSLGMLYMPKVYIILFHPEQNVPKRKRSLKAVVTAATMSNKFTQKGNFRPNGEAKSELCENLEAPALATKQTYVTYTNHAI

| SMILES | Activity at mGluR4 |
| --- | --- |
| Cc1cccc(C#Cc2ccccc2)n1 [MPEP, 2-methyl-6-(phenylethynyl) pyridine] | positive allosteric modulator |

system: not given; test: not given; conditions: intravenous administration to rhesus monkeys; cited from earlier work

| SMILES | Clearance |
| --- | --- |
| Cc1nc(C#Cc2cccnc2)cs1 [MTEP, 3-[(2-methyl-1,3-thiazol-4-yl)ethynyl]pyridine] | efficiently cleared |

system: marble burying in mice; test: not given; conditions: cited from earlier work

| SMILES | Efficacy in marble burying model |
| --- | --- |
| Cc1cccc(C#Cc2ccccc2)n1 [MPEP, 2-methyl-6-(phenylethynyl) pyridine] | effective |
| CN1CC(=O)N=C1NC(=O)Nc1cccc(Cl)c1 [fenobam, 1-(3-chlorophenyl)-3-(1-methyl-4-oxo-4,5-dihydro-1H-imidazol-2-yl)urea] | effective |

system: N-methyl-D-aspartate (NMDA) receptor; test: not given; conditions: at higher concentrations; cited from earlier work

| SMILES | NMDA receptor activity inhibition |
| --- | --- |
| Cc1cccc(C#Cc2ccccc2)n1 [MPEP, 2-methyl-6-(phenylethynyl) pyridine] | directly inhibit |
